PubChem BioAssay (NCI)
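All cell lines were grown in 96-well plates and treated with compound for 48 hours. Abbreviation: GI50, concentration required for 50% inhibition of growth. TGI is the concentration that stops growth completely.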

What was measured:
Assay in all cases: NCI tumour cell line growth inhibition, 48 h
M19-MEL melanoma = system: M19-MEL melanoma
KM20L2 colon = system: KM20L2 colon
DLD-1 colon = system: DLD-1 colon
LXFL 529 NSCLC = system: LXFL 529 NSCLC
HOP-18 NSCLC = system: HOP-18 NSCLC
DMS 114 small cell lung = system: DMS 114 small cell lung
RXF-631 renal = system: RXF-631 renal
MDA-N = system: MDA-N
P388 leukemia = system: P388 leukemia
P388/ADR leukemia = system: P388/ADR leukemia
SN12K1 renal = system: SN12K1 renal

Compound | TGI (M19-MEL melanoma) [µM] | TGI (KM20L2 colon) [µM] | TGI (DLD-1 colon) [µM] | TGI (LXFL 529 NSCLC) [µM] | TGI (HOP-18 NSCLC) [µM] | TGI (DMS 114 small cell lung) [µM] | other results
COc1ccc(N/N=C(\CCN(C)C)c2ccccc2)cc1 | 13.5 | 1.71 | 11.9 | 3.8 | > 100 | 27.6 | 
CC(=O)OC1CC2Oc3ccc(C)cc3C(C)(O2)C1=O (stereo unspecified) | > 100 |  | > 100 |  | > 100 | > 100 | 
O=C1c2ccccc2NC1(c1ccccc1)c1c(-c2ccccc2)[nH]c2ccccc12 (stereo unspecified) | > 100 | > 100 | > 100 | > 100 | > 100 | > 100 | TGI (RXF-631 renal): > 100 µM
CC(=O)C1C(=O)NC(=O)C1=O (stereo unspecified) | > 100 | > 100 |  | > 100 | > 100 | > 100 | 
COc1ccc(NC(=O)CC/C(CC(=O)C(C)(C)C)=N\NC(=O)C(N)=O)cc1 | > 100 | > 100 | > 100 | > 100 |  | > 100 | 
C#CCN(N=O)C(=O)NC(CCCNC(=O)OCc1ccccc1)C(=O)OCc1ccccc1 (stereo unspecified) | > 100 | > 100 | > 100 | > 100 |  | > 100 | 
Cc1[nH]c2ccccc2c1-c1cc(-c2cc(-c3c(C)[nH]c4ccccc34)nc(N)n2)nc(N)n1 |  |  |  |  |  |  | TGI (MDA-N): > 100 µM
COc1ccc(Cc2cc3c(cc2OCC(=O)O)OCO3)cc1 | > 100 | > 100 | > 100 |  |  | > 100 | TGI (RXF-631 renal): > 100 µM
O=C(O)/C(Cl)=C(\Cl)C(=O)NC1C2CC3CC(C2)CC1C3 (stereo unspecified) | > 100 | > 100 | > 100 | > 100 | > 100 | > 100 | TGI (RXF-631 renal): > 100 µM
O=C(CC1(O)C(=O)Nc2ccccc21)c1ccco1 (stereo unspecified) | > 100 | > 100 | > 100 | > 100 |  | > 100 | 
COC(=O)NC1(NC(=O)OC)NC(=O)c2cc(OC)c(OC)c(OC)c2N1 |  |  |  |  |  |  | TGI (MDA-N): 16.9 µM
COc1cc2c(cc1OC)C(OC)N(C)c1c-2ccc2cc3c(cc12)OCO3 (stereo unspecified) | 4.08 | 6.5 | 61.2 |  | 68.5 | 12.3 | TGI (P388 leukemia): 4.98 µM; TGI (MDA-N): > 75 µM; TGI (P388/ADR leukemia): 13 µM; TGI (SN12K1 renal): 2.05 µM
COC(=O)CCC(=O)Nc1cc(Cl)ccc1Cl | > 100 | > 100 | > 100 | > 100 | > 100 | > 100 | 
CCOC(=O)C(=O)Nc1ccc(Cl)cc1C | > 100 | > 100 | > 100 | > 100 | > 100 | > 100 | 
CCN1C2=NCCN2S(=O)(=O)c2ccccc21 |  |  |  |  |  |  | TGI (MDA-N): > 100 µM
CC(=O)[O-].[Mn+3].[O-]c1ccccc1C=NCCN=Cc1ccccc1[O-] | > 100 | > 100 | > 100 | > 100 | > 100 |  | GI50 (M19-MEL melanoma): 44.2 µM; GI50 (KM20L2 colon): 56.2 µM; GI50 (DLD-1 colon): 56.5 µM; GI50 (LXFL 529 NSCLC): 50.7 µM; GI50 (HOP-18 NSCLC): > 100 µM
COc1cc(O)c2c(c1)C(=O)C=C(Cl)C2=O | > 100 | > 100 | > 100 | > 100 | > 100 | > 100 | TGI (RXF-631 renal): > 100 µM
CC(=O)O[C@H]1CCC2[C@@H]3CCC4=C(O)C(=O)C(C#N)C[C@]4(C)C3CC[C@@]21C (stereo partly specified) | > 100 | > 100 | > 100 | > 100 |  | 81.1 | 
CN1C(c2ccccc2)CS(=O)(=O)CS1(=O)=O (stereo unspecified) | > 100 | > 100 | > 100 | > 100 | > 100 | > 100 | TGI (RXF-631 renal): > 100 µM
O=C(O)c1cc2ccccc2c(N=Nc2cc(C(F)(F)F)ccc2Cl)c1O |  |  |  |  |  |  | TGI (MDA-N): > 100 µM

Compound | TGI (M19-MEL melanoma) [µM] | TGI (KM20L2 colon) [µM] | TGI (DLD-1 colon) [µM] | TGI (LXFL 529 NSCLC) [µM] | TGI (HOP-18 NSCLC) [µM] | TGI (DMS 114 small cell lung) [µM] | other results
CN(CC#N)C1CCCC[C@H]1O (stereo partly specified) |  | > 100 | > 100 | > 100 | > 100 | > 100 | 
CN(C)CCNC(=O)c1cccc2c(Nc3ccc(S(N)(=O)=O)cc3)c3ccccc3nc12 |  | 13.3 |  | 2.23 | 9.2 | 2.3 | 
Cc1nc(CN2CCCCC2)c(O)c(=O)[nH]1 |  |  |  |  |  |  | TGI (MDA-N): > 100 µM
Cc1ccc(NC(=O)C(=O)CC(=O)C2CCOC2=O)c(C)c1 (stereo unspecified) |  | > 100 | > 100 | > 100 | > 100 | > 100 | TGI (RXF-631 renal): > 100 µM
O=S(=O)(N/N=C/c1cccc(Cl)c1Cl)c1ccccc1 | > 100 | > 100 | > 100 | > 100 | > 100 | 90.3 | 
O=c1cc(-c2ccccc2)oc2cc(O)cc(O)c12 | 73.5 | 53.1 |  | 48.3 |  | 58.2 | 
CN(CCc1ccccn1)c1nc(=[N+](C)C)ss1 | > 100 | > 100 | > 100 | > 100 | > 100 | > 100 | TGI (RXF-631 renal): > 100 µM
CC(C)C1CC2C(=O)N(c3ccccc3)C(=O)C2c2[nH]c3ccccc3c21 (stereo unspecified) | > 100 | > 100 | > 100 |  |  | > 100 | 
O=C(O)c1cc2ccccc2oc1=O |  |  |  |  |  |  | TGI (MDA-N): > 100 µM
O=C(c1ccccc1)c1oc2ccc(Br)cc2c1-c1cnn(-c2ccccc2)c1 | > 100 | > 100 | > 100 | > 100 |  | > 100 | 
CN(C)CCSc1cccc(-c2cc(-c3cccc(SCCN(C)C)c3)nc(SCCN(C)C)n2)c1 |  | 3.46 | 25.9 | 3.89 |  |  | 
O=C(Cc1nc2ccccc2s1)C(=O)Nc1cccc(Cl)c1 | > 100 | > 100 | > 100 | > 100 |  | > 100 | TGI (RXF-631 renal): > 100 µM
O=S(=O)(SCc1ccccc1)C(c1ccccc1)c1ccccc1 | > 100 | 40.5 | 55.4 | > 100 |  | 48.1 | 
CN(/N=C/c1cccc2cccnc12)c1ccc([N+](=O)[O-])cc1 | > 100 | > 100 | > 100 | > 100 | > 100 | > 100 | 
CC1=C(C(=O)NCc2ccccc2)C(c2ccc([N+](=O)[O-])cc2)C(C(=O)NCc2ccccc2)=C(C)N1 | 52.7 | 54 | > 100 | > 100 | > 100 | > 100 | 
COc1ccc(C[C@@H]2NC[C@@H](O)[C@@H]2OC(C)=O)cc1 | > 100 | > 100 | 13.8 | 24.1 | 6.35 | > 100 | 
Cc1ccc(C2NC(=O)c3ccccc3N2)s1 (stereo unspecified) | > 100 | 39.3 | > 100 | > 100 |  | > 100 | 
CC1=C(C(=O)Nc2cc(=O)n(C)c(=O)n2C)C(c2ccc([N+](=O)[O-])cc2)C(C(=O)Nc2cc(=O)n(C)c(=O)n2C)=C(C)N1 | > 100 | > 100 | > 100 | > 100 | > 100 | > 100 | TGI (RXF-631 renal): > 100 µM
O=[N+]([O-])/C=C/c1cc2ccccc2[nH]1 |  |  |  |  |  |  | TGI (MDA-N): 12.1 µM
